Test results: ChEMBL document CHEMBL1159253, “Two new cytotoxic monotetrahydrofuran Annonaceous acetogenins, annomuricins A and B, from the leaves of Annona muricata” (J Nat Prod, 1995)
In brackets after ≈: the same amount, converted by molar mass.

Experiments:
A549 = assay: Cytotoxicity against human A549 cells after 7 days by MTT assay; format: functional; settings: for EC50: Homo sapiens, A549, 168 h, read-out: ED50 (the source's name)
[1] = Toxicity against brine shrimp; format: organism-based; settings: artemia, in vivo
MCF7 = assay: Cytotoxicity against human MCF7 cells after 7 days by MTT assay; format: functional; settings: for EC50: Homo sapiens, MCF7, 168 h, read-out: ED50 (the source's name)
HT-29 = assay: Cytotoxicity against human HT-29 cells after 7 days by MTT assay; format: functional; settings: HT-29, 168 h, read-out: ED50 (the source's name)

Question: Which ED50 (A549) does the source give for `CCCCCCCCCCCC[C@H](O)[C@H]1CC[C@H]([C@H](O)CCC[C@H]2OC(C)(C)O[C@@H]2CCCCC[C@@H](O)CC2=C[C@H](C)OC2=O)O1` here?
Answer: 1.58 ×10⁻⁴ ug/ml

Question: What about the LC50 [1] of the same molecule?
Answer: 0.131 µg/mL (≈ 0.201 µM)

Question: And the ED50 (MCF7)?
Answer: 2.78 ×10⁻⁴ ug/ml

Question: And the EC50 (HT-29)?
Answer: > 1 µg/mL

Question: With `CCCCCCCCCCCC[C@H](O)[C@H]1CC[C@H]([C@H](O)CCC[C@@H]2OC(C)(C)O[C@@H]2CCCCC[C@@H](O)CC2=C[C@H](C)OC2=O)O1` as the molecule, how does the ED50 (A549) read?
Answer: 3.41 ×10⁻⁴ ug/ml

Question: What about the LC50 [1] of the same molecule?
Answer: 0.18 µg/mL (≈ 0.276 µM)

Question: What about the ED50 (MCF7) of the same molecule?
Answer: 1.41 ×10⁻⁴ ug/ml

Question: What about the EC50 (HT-29) of the same molecule?
Answer: 0.0933 µg/mL (≈ 0.143 µM)

Question: With `CCCCCCCCCCCC[C@H](O)[C@H]1CC[C@H]([C@H](O)CCC[C@@H](O)[C@H](O)CCCCC[C@@H](O)CC2=C[C@H](C)OC2=O)O1` [ANNOMURICIN A] as the molecule, how does the EC50 (A549) read?
Answer: 0.33 µg/mL (≈ 0.538 µM)

Question: And the LC50 [1]?
Answer: 0.625 µg/mL (≈ 1.02 µM)

Question: And the EC50 (MCF7)?
Answer: > 1 µg/mL

Question: What about the EC50 (HT-29) of the same molecule?
Answer: > 1 µg/mL

Question: For `CCCCCCCCCCCC[C@H](O)[C@H]1CC[C@H]([C@H](O)CCC[C@H](O)[C@H](O)CCCCC[C@@H](O)CC2=C[C@H](C)OC2=O)O1` [ANNOMURICIN B], which EC50 (A549) is on record?
Answer: 0.159 µg/mL (≈ 0.259 µM)

Question: What about the LC50 [1] of the same molecule?
Answer: 0.687 µg/mL (≈ 1.12 µM)

Question: What about the EC50 (MCF7) of the same molecule?
Answer: > 1 µg/mL

Question: What about the EC50 (HT-29) of the same molecule?
Answer: 0.435 µg/mL (≈ 0.71 µM)

Question: Which results are given for `COc1cccc2c1C(=O)c1c(O)c3c(c(O)c1C2=O)C[C@@](O)(C(=O)CO)C[C@@H]3O[C@H]1C[C@H](N)[C@H](O)[C@H](C)O1` [DOXORUBICIN]?
Answer: EC50 (A549): 0.0101 µg/mL (≈ 0.0186 µM); EC50 (MCF7): 0.126 µg/mL (≈ 0.232 µM); EC50 (HT-29): 0.0275 µg/mL (≈ 0.0506 µM)
